Measurements taken from patent publication US10287298B2, “Nitrogen-containing analogs of salinomycin, synthesis and use against cancer stem cells and malaria” (Centre National de la Recherche Scientifique (CNRS), priority 2014, dated 2019).
Entries after “also recorded” stand apart in the source; their conditions may differ. Like-named read-outs stand apart in the source and are kept apart here.

How the values were obtained:
[1] = Toxicity assessment (histology, body weight); assay type: in vivo, mice; details: effective dose
Description: FIG. 15 is a graph representing the mice body-weight during treatment with AM5. Error bars for mice body weight represent s.d. and correspond to correspond to five animals per group.
Histology. Organs from mice were removed at time of sacrifice. For morphological analyses, organs were fixed with 4% paraformaldehyde, paraffin embedded, and 4-μm sections were stained with hematoxylin and eosin (H&E). Sections were scanned at high resolution using a slide scanner (NanoZoomer 2.0-HT, Hamamatsu, Massy, France).

[2] = system: MDA-MB-231 cells; experiment: Dead cells by DIOC6(3)/DAPI test with cathepsine B inhibitor; assay type: cell-based, Human; details: 500 nM; COA74-Me 30 μM; 48 h, 96 h, 108 h
Protocol: From the treatment, dead cells were assessed by DIOC6(3)/DAPI test and analyzed by flow cytometry.

[3] = system: HMLER CD24low cells; experiment: Reactive Oxygen Species (ROS) levels by flow cytometry (CM-H2DCF-DA); assay type: cell-based, Human; details: cells treated for 48 h
Protocol: Reactive Oxygen Species (ROS) levels were measured by flow cytometry or by confocal scanning immunofluorescence microscopy using CM-H2DCF-DA (C6827, invitrogen). Briefly, U2OS and HMLER CD24low cells were treated as indicated in FIG. 11 (30 nM, 500 nM or 1 μM of salinomycine, AM5 or AM23 or untreated during 48 h). Then, these cells were trypsined and incubated with 5 μM CM-H2DCF-DA at 37° C. for 40 min, washed once with PBS and were counterstained with DAPI (0.5 μg/ml) to exclude non-viable cells. The mean fluorescence intensity was determined as ROS production by flow cytometry with LSRFortessa™ cytometer (BD Bioscience, San Jose, Calif.). For immunofluorescence microscopy analysis, cells were seeded on coverslips and were treated with salinomycine derivatives (injection in culture medium then treatment during 24 h, 48 h and 72 h). LysoTracker® Red DND-99 (L-7528, Life technologies) was used to visualize lysosomes. Then, cells were fixed with 4% PFA/PBS. DAPI was used to visualize nuclear DNA. Cell images were obtained using a Deltavision real-time microscope (Applied Precision) or an ApoTome.2 microscope (Zeiss). ImageJ was used for further image processing.
FACS analysis of ROS in cells treated for 48 h is represented in FIG. 17.

[4] = system: SW480; experiment: Cell death IC50, Annexin V-FITC/PI flow cytometry; assay type: cell-based; details: Homo sapiens, read-out: IC50 SW480
Protocol: (§1) The cells were seeded in a 6-well plate at density 5.105 cells/well and cultured overnight. The cells were then treated with various concentration (15, 30, 100, 500, 1000 and 10.000 nM) of salinomycine, AM5 and AM23 for 72 h, 96 h and 108 h. After treatment, cell death was quantified using Annexin V-FITC/Propidium Iodide (PI) assay according to the manufacturer's protocol (FITC Annexin V Apoptosis Detection Kit II, 556570, BD Pharmingen™) and analyzed by a LSRFortessa™ flow cytometer (BD Bioscience, San Jose, Calif.). The data were processed using Cell Quest software (BD Biosciences). Dose-response cell death curves were determined for indicated time.
(§2) For tumor cells, the cells are classified in function of their sensitivity of drugs. Here, the most sensitive cells are incubated for 72 h, the middle sensitive cells for 96 h and the less sensitive or resistant cells are incubated for 108 h with drug at several concentrations.
(§3) Concentrations of 30 nM, 500 nm and 1 μM were used for determining the IC50 of drugs.
(§4) Intervals][…]] mean that IC50 is included in this interval with exclusion of the valor 30 nM.
(§5) The SW620 and SW480 cell lines are from colon tumors.

[5] = system: SW620; experiment: Cell death IC50, Annexin V-FITC/PI flow cytometry; assay type: cell-based; details: Homo sapiens, read-out: IC50 SW620
Protocol: as §1, §2, §3, §4, §5

[6] = system: MCF-7 xenograft; experiment: Xenograft tumor formation; assay type: in vivo, mice; details: 3 mg per kg body weight per day, intra peritoneal
Protocol: Human breast cancer cell line MCF-7 cells cultures were collected, enzymatically dissociated, washed in PBS, and resuspended in PBS/Matrigel mixture (1:1 volume). 0.1 ml of this mixture was then implanted in the mammary fat pad of 5-week-old female AthymicNude-Fox1nu mice (Harlan, France). The mice were maintained in individually-ventilated cages (Tecniplast, France) under constant temperature and humidity; all experiments were performed under laminar flow (Tecniplast France). The mice received estradiol supplementation (0.4 mg/kg) in the same day and 7th day from cell injection, and were observed and palpated for tumor appearance. The mice received Salinomycine analogue (here AM5, 3 mg per kg body weight per day, intra peritoneal injection) every 5 opened days of the week for 33 days. Tumor growth was measured weekly using calipers. Tumor volume was determined using the standard formula: L×W2×0.52, where L and W are the longest and shortest diameters, respectively. […]
Xenograft tumor formation experiments: MCF-7 cell cultures were collected, enzymatically dissociated, washed with PBS, and re-suspended in a PBS/Matrigel mixture (1:1 v/v). […] Tumor growth was measured weekly using calipers. Tumor volume was determined using the standard formula: L×W2×0.52, where L and W are the longest and shortest diameters, respectively. […]

[7] = system: TICs; details: cited from earlier work

Row | SMILES | body weight throughout treatment [1] | generic toxicity (integrity of peripheral tissues) ([1]; H&E histology) | death of MDA-MB-231 cells in combination with cathepsine B inhibition [2] | ROS production under pharmacological inhibition of Cathepsin B [3] | IC50 ([4]; SW480, 3rd sensibility (108 h), colon tumor cells) | IC50 ([5]; SW-620, 3rd sensibility (108 h), colon tumor cells) | tumor volume and tumor weight ([6]; 33 days) | tumor growth ([6]; MCF-7 xenograft-bearing mice) | efficacy in reducing the amount of TICs relative to paclitaxel [7] | IC50 ([4]; SW480, 108 h) | IC50 ([5]; SW-620, 108 h)
1 | C#CCN[C@@H]1C=C[C@]2(O[C@H]([C@@H](CC)C(=O)[C@@H](C)[C@@H](O)[C@H](C)C3O[C@@H](C(CC)C(=O)O)CC[C@@H]3C)[C@@H](C)C[C@H]2C)O[C@@]12CC[C@@](C)([C@H]1CC[C@](O)(CC)[C@H](C)O1)O2 (stereo partly drawn) [AM5, Sal-Propargylamine] | constant body weight | No generic toxicity was observed | combine themselves to induce the death | prevents AM5 from inducing ROS production | 30 to 500 nM | 30 to 500 nM | lower | inhibits breast cancer tumor growth; also recorded: prevented tumor growth |  |  | 
2 | CCC(C(=O)O)[C@H]1CC[C@H](C)C([C@@H](C)[C@H](O)[C@H](C)C(=O)[C@H](CC)[C@H]2O[C@]3(C=C[C@@H](O)[C@]4(CC[C@@](C)([C@H]5CC[C@](O)(CC)[C@H](C)O5)O4)O3)[C@H](C)C[C@@H]2C)O1 (stereo partly drawn) [Salinomycine, Salinomycin] |  |  | combine themselves to induce the death |  |  |  |  |  | 100 fold | 30 to 500 nM | 500 to 1000 nM
